# Assays:
# [1] = system: atopic dermatitis patients; settings: cited from earlier work
# [2] = biological target: T1, PDE4B (human recombinant) (Homo sapiens, UniProt Q07343); assay: Inhibition of PDE4B activity: SPA and/or Fluorescence Polarisation (FP) assay; format: biochemical; settings: one reading (n=1) or average of 2 or more readings, read-out: PDE4B pIC50 (±about 0.5) (converted)
# T1 construct: made in house
# Summary of the method: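 Human recombinant PDE4B activity measured by SPA with [3H]cAMP at about 10 nM, 1 h at ambient temperature, enzyme set for ≤20% substrate hydrolysis, or by IMAP FP with Fl-cAMP at about 40 nM, 40 min at ambient temperature under linear conditions. Inhibition curves fitted; values reported as pIC50.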
# COPD patients = settings: cited from earlier work
# [3] = system: humans with histories of allergic rhinitis; settings: orally 500 ug once daily for 9 days; intranasal allergen provocation (pollen extracts); cited from earlier work
# T1 sequence (Q07343 1-564 isoform Q07343-2): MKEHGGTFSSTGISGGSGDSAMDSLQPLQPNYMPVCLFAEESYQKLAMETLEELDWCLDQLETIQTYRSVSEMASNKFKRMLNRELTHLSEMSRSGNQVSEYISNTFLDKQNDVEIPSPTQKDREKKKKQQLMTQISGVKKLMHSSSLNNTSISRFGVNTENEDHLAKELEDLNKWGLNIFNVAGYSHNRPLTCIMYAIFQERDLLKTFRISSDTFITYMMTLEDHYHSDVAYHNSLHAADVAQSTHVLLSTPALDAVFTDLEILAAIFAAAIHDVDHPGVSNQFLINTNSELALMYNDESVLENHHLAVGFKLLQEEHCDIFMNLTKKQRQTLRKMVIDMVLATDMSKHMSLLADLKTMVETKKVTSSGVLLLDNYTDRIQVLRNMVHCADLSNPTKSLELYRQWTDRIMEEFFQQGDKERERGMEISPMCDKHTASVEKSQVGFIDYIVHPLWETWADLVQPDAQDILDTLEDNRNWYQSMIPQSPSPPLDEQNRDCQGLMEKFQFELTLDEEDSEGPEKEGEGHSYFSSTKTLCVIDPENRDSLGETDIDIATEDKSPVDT
smiles,measurement,setting,value
"COc1ccc(C2CNC(=O)NC2)cc1O[C@H]1C[C@@H]2CC[C@H]1C2 [CP80,633]",inflammatory parameters in atopic dermatitis patients,"[1]; 0.5% ointment, twice daily topical application",reductions of inflammatory parameters
"CCc1nc2c(cnn2CC)c(NC2CCOCC2)c1CNC(=O)c1cnc(C(C)C)nc1 [Example 346, N-{[1,6-diethyl-4-(tetrahydro-2H-pyran-4-ylamino)-1H-pyrazolo[3,4-b]pyridin-5-yl]methyl}-2-(1-methylethyl)-5-pyrimidinecarboxamide]",IC50,[2],0.126 to 1 nM
"CCn1ncc2c(NC3CCOCC3)c(CNC(=O)c3cnc(C(C)C)nc3)c(C)nc21 [Example 347, N-{[1-ethyl-6-methyl-4-(tetrahydro-2H-pyran-4-ylamino)-1H-pyrazolo[3,4-b]pyridin-5-yl]methyl}-2-(1-methylethyl)-5-pyrimidinecarboxamide]",IC50,[2],0.126 to 1 nM
"CCn1ncc2c(NC3CCOCC3)c(CNC(=O)c3cnc(C)cn3)c(C(F)(F)F)nc21 [Example 348, N-{[1-Ethyl-4-(tetrahydro-2H-pyran-4-ylamino)-6-(trifluoromethyl)-1H-pyrazolo[3,4-b]pyridin-5-yl]methyl}-5-methyl-2-pyrazinecarboxamide]",IC50,[2],0.126 to 1 nM
"CCn1ncc2c(NC3CCOCC3)c(CNC(=O)c3cnc(C)s3)c(C(F)(F)F)nc21 [Example 349, N-{[1-Ethyl-4-(tetrahydro-2H-pyran-4-ylamino)-6-(trifluoromethyl)-1H-pyrazolo[3,4-b]pyridin-5-yl]methyl}-2-methyl-1,3-thiazole-5-carboxamide]",IC50,[2],0.126 to 1 nM
COc1ccc([C@]2(C#N)CC[C@@H](C(=O)O)CC2)cc1OC1CCCC1 [cilomilast],forced expiratory volume in 1s (FEV1) in COPD patients,COPD patients; 15 mg orally twice daily,appears to improve forced expiratory volume in 1s (FEV1)
same,antiinflammatory effects in COPD patients,"COPD patients; human, in vivo",appears to have antiinflammatory effects
Nc1nc2c([nH]1)c(=O)n(CC1CC1)c(=O)n2CC1CC1 [cipamfylline],effectiveness in the treatment of atopic dermatitis patients,"[1]; 0.15% cream, vs vehicle and hydrocortisone 17-butyrate (0.1%) cream","significantly more effective than vehicle, but significantly less effective than hydrocortisone 17-butyrate (0.1%) cream"
O=C(Nc1c(Cl)cncc1Cl)c1ccc(OC(F)F)c(OCC2CC2)c1 [roflumilast],rhinal airflow during the treatment period (compared to placebo),[3],effective in improving rhinal airflow
same,FEV1 in COPD patients,"COPD patients; human, in vivo",appears to show small improvements in FEV1

# — patent US20090131431A1, “Pyrazolo[3,4-b]pyridine compounds, and their use as a PDE4 inhibitors” (priority 2005, published 2009)
